Data set [1] can be described thus: solubility in pH 7.4 phosphate buffer by HPLC. It is filed as physicochemical. To be noted: 25 °C, aqueous buffer; sodium salt; pH 7.4, 0.05M phosphate buffer; maximum total concentration 200 uM; 25 deg; read-out: Solvent Solubility at 25 deg, Water pH 7.4. As to the method:
The solubility of each compound was determined as follows: two samples are prepared for each compound. One (the standard sample) contains the compound at a fixed concentration of 20 uM in an aqueous/organic mixed solvent cocktail. The other (the test sample) contains the compound at a maximum total concentration of 200 uM in pH 7.4, 0.05M phosphate buffer. The test sample is spun for 15 minutes to remove any undissovled solid. HPLC analyses are performed on these samples. The relative peak areas are used for computing the solubility. The sodium salt of each compound was used for the comparison.

Data set [2] in a line: oral blood exposure (DNAUC) in rats. It is filed as in vivo, male Sprague-Dawley rats. To be noted: sodium salt, oral gavage, dose ~1-4 mg/kg, 50% PEG-400, 10% ethanol, 40% of 40% (w/v) aqueous Encapsin. More on the design: unit not given here. The protocol:
Blood (120 microliters) was sampled at the following time intervals: 0, 20, 40, 60,120,180, 240, 360, 480, and 1440 min. […] The oral exposures of the sodium salt of Compound B and the sodium salt of Compound C were quantified by the same method.

Data set [3] in a line: bioavailability in the Beagle dog. It is filed as in vivo.
Data set [4] can be described thus: physical and chemical stability / hygroscopicity of the crystalline compound. Type of data set: physicochemical.

For orientation: solubility means how much of the substance goes into solution per volume.

Structures can show the parent of a compound that is named as a salt.

Regarding `O=C1NC(=Nc2c(Cl)cccc2Cl)S/C1=C\c1ccc2nccnc2c1` [Compound A · Na, (5Z)-5-(6-quinoxalinylmethylidene)-2-[(2,6-dichlorophenyl)amino]-1,3-thiazol-4(5H)-one sodium salt], in data set [1], the solubility turned out to be 31 µM. `O=C1NC(=Nc2c(Cl)cccc2Cl)S/C1=C\c1ccc2ncccc2c1` [Compound B · Na, 2-(2,6-dichloro-phenylimino)-5-(quinolin-6-ylmethylene)-thiazolidin-4-one sodium salt, reference compound]: the “Oral DNAUC rats (Sprague-Dawley)” value in data set [2] came to 0.49. In addition, in data set [1], the solubility amounted to 6 µM. As for `O=C1NC(=Nc2ccccc2Cl)S/C1=C\c1ccc2nccnc2c1` [Compound C · Na, 2-(2-chloro-phenylimino)-5-(quinoxalin-6-ylmethylene)-thiazolidin-4-one sodium salt], the “Oral DNAUC rats (Sprague-Dawley)” value in data set [2] stood at 0.34.

As for `O=C1NC(=Nc2c(Cl)cccc2Cl)S/C1=C\c1ccc2nccnc2c1` [Compound D, (5Z)-5-(6-quinoxalinylmethylidene)-2-[(2,6-dichlorophenyl)amino]-1,3-thiazol-4(5H)-one meglumine], the bioavailability result in data set [3] is “demonstrated bioavailability”. Besides, in data set [4], the hygroscopicity result is listed as “non-hygroscopic”; the “physical and chemical stability” value is “physically and chemically stable”.

The values are drawn from US7674792B2, “5(Z)-5-(6-quinoxalinylmethylidene)-2-[2,6-dichlorophenyl)amino]-1,3-thiazol-4(5H)-one” (GlaxoSmithKline LLC, priority 2005, dated 2010).
